Laboratory results published in ChEMBL document CHEMBL4308841, “Synthesis, in vitro antiproliferative activity, and kinase inhibitory effects of pyrazole-containing diarylureas and diarylamides” (Eur J Med Chem, 2018).

What was measured:
A498 = assay: Growth inhibition of human A498 cells assessed as cell growth at 0.01 uM incubated for 48 hrs by sulforhodamine B assay relative to control; type: functional; conditions: A498, 48 h, read-out: Activity
K562 [1] = assay: Growth inhibition of human K562 cells assessed as cell growth at 0.1 uM incubated for 48 hrs by sulforhodamine B assay relative to control; type: functional; conditions: K562, 48 h, read-out: Activity
RPMI-8226 = assay: Growth inhibition of human RPMI8226 cells assessed as cell growth at 100 uM incubated for 48 hrs by sulforhodamine B assay relative to control; type: functional; conditions: RPMI-8226, 48 h, read-out: Activity
OVCAR-3 = assay: Growth inhibition of human OVCAR3 cells assessed as cell growth at 0.1 uM incubated for 48 hrs by sulforhodamine B assay relative to control; type: functional; conditions: OVCAR-3, 48 h, read-out: Activity
TK-10 = assay: Growth inhibition of human TK10 cells assessed as cell growth at 10 uM incubated for 48 hrs by sulforhodamine B assay relative to control; type: functional; conditions: TK-10, 48 h, read-out: Activity
SK-MEL-5 [2] = assay: Growth inhibition of human SK-MEL-5 cells assessed as cell growth at 0.01 uM incubated for 48 hrs by sulforhodamine B assay relative to control; type: functional; conditions: SK-MEL-5, 48 h, read-out: Activity
A549 [3] = assay: Growth inhibition of human A549/ATCC cells incubated for 48 hrs by sulforhodamine B assay; type: functional, cell-based; conditions: A549, 48 h
MDA-MB-435 = assay: Growth inhibition of human MDA-MB-435 cells assessed as cell growth at 0.01 uM incubated for 48 hrs by sulforhodamine B assay relative to control; type: functional; conditions: MDA-MB-435, 48 h, read-out: Activity
MOLT-4 = assay: Growth inhibition of human MOLT4 cells incubated for 48 hrs by sulforhodamine B assay; type: functional, cell-based; conditions: MOLT-4, 48 h
SK-OV-3 [4] = assay: Growth inhibition of human SKOV3 cells assessed as cell growth at 0.01 uM incubated for 48 hrs by sulforhodamine B assay relative to control; type: functional; conditions: SK-OV-3, 48 h, read-out: Activity
K562 [5] = assay: Growth inhibition of human K562 cells assessed as cell growth at 100 uM incubated for 48 hrs by sulforhodamine B assay relative to control; type: functional; conditions: K562, 48 h, read-out: Activity
UACC-257 = assay: Growth inhibition of human UACC257 cells incubated for 48 hrs by sulforhodamine B assay; type: functional, cell-based; conditions: UACC-257, 48 h
SF-268 = assay: Growth inhibition of human SF268 cells assessed as cell growth at 100 uM incubated for 48 hrs by sulforhodamine B assay relative to control; type: functional; conditions: SF-268, 48 h, read-out: Activity
IGROV-1 = assay: Growth inhibition of human IGROV1 cells assessed as cell growth at 0.1 uM incubated for 48 hrs by sulforhodamine B assay relative to control; type: functional; conditions: IGROV-1, 48 h, read-out: Activity
OVCAR-8 = assay: Growth inhibition of human OVCAR8 cells assessed as cell growth at 1 uM incubated for 48 hrs by sulforhodamine B assay relative to control; type: functional; conditions: OVCAR-8, 48 h, read-out: Activity
NCI-H226 = assay: Growth inhibition of human NCI-H226 cells assessed as cell growth at 1 uM incubated for 48 hrs by sulforhodamine B assay relative to control; type: functional; conditions: NCI-H226, 48 h, read-out: Activity
SK-MEL-28 = assay: Growth inhibition of human SK-MEL-28 cells assessed as cell growth at 0.1 uM incubated for 48 hrs by sulforhodamine B assay relative to control; type: functional; conditions: SK-MEL-28, 48 h, read-out: Activity
MDA-MB-231 = assay: Growth inhibition of human MDA-MB-231 cells assessed as cell growth at 1 uM incubated for 48 hrs by sulforhodamine B assay relative to control; type: functional; conditions: MDA-MB-231, 48 h, read-out: Activity
SK-OV-3 [6] = assay: Growth inhibition of human SKOV3 cells assessed as cell growth at 1 uM incubated for 48 hrs by sulforhodamine B assay relative to control; type: functional; conditions: SK-OV-3, 48 h, read-out: Activity
SF-295 = assay: Growth inhibition of human SF295 cells assessed as cell growth at 100 uM incubated for 48 hrs by sulforhodamine B assay relative to control; type: functional; conditions: SF-295, 48 h, read-out: Activity
SNB-75 [7] = assay: Growth inhibition of human SNB75 cells incubated for 48 hrs by sulforhodamine B assay; type: functional, cell-based; conditions: SNB-75, 48 h
SNB-75 [8] = assay: Growth inhibition of human SNB75 cells assessed as cell growth at 0.01 uM incubated for 48 hrs by sulforhodamine B assay relative to control; type: functional; conditions: SNB-75, 48 h, read-out: Activity
SK-OV-3 [9] = assay: Growth inhibition of human SKOV3 cells incubated for 48 hrs by sulforhodamine B assay; type: functional, cell-based; conditions: SK-OV-3, 48 h
DU-145 [10] = assay: Growth inhibition of human DU145 cells assessed as cell growth at 0.01 uM incubated for 48 hrs by sulforhodamine B assay relative to control; type: functional; conditions: DU-145, 48 h, read-out: Activity
DU-145 [11] = assay: Growth inhibition of human DU145 cells incubated for 48 hrs by sulforhodamine B assay; type: functional, cell-based; conditions: DU-145, 48 h
HCT-116 = assay: Growth inhibition of human HCT116 cells assessed as cell growth at 0.01 uM incubated for 48 hrs by sulforhodamine B assay relative to control; type: functional; conditions: HCT-116, 48 h, read-out: Activity
A549 [12] = assay: Growth inhibition of human A549/ATCC cells assessed as cell growth at 0.1 uM incubated for 48 hrs by sulforhodamine B assay relative to control; type: functional; conditions: A549, 48 h, read-out: Activity
COLO 205 = assay: Growth inhibition of human COLO205 cells assessed as cell growth at 100 uM incubated for 48 hrs by sulforhodamine B assay relative to control; type: functional; conditions: COLO 205, 48 h, read-out: Activity
SK-MEL-5 [13] = assay: Growth inhibition of human SK-MEL-5 cells assessed as cell growth at 1 uM incubated for 48 hrs by sulforhodamine B assay relative to control; type: functional; conditions: SK-MEL-5, 48 h, read-out: Activity
[14] = read-out: LC50 (the source's name)
[15] = read-out: pLC50 (the source's name) (converted)

## COc1cc(Cl)cc(-c2nn(-c3cccc(NC(=O)c4cccc(C(F)(F)F)c4)c3)cc2-c2ccncc2)c1
A498
  growth at 0.01 µM: 58%
K562 [1]
  growth at 0.1 µM: 112%
RPMI-8226
  growth at 100 µM: 22%
OVCAR-3
  growth at 0.1 µM: 108%
TK-10
  growth at 10 µM: 72.7%
SK-MEL-5 [2]
  growth at 0.01 µM: 97%
A549 [3]
  IC50: 3.62 µM
A549 [3]; read-out: GI50
  GI50: 3.52 µM
A549 [3]; [14]
  CC50: > 100 µM
A549 [3]; read-out: TGI
  TGI: > 100 µM
A549 [3]; read-out: pGI50 (converted)
  GI50: 3.63 µM
A549 [3]; [15]
  CC50: > 100 µM
A549 [3]; read-out: pTGI (converted)
  TGI: > 100 µM
MDA-MB-435
  growth at 0.01 µM: 98%
MOLT-4; read-out: GI50
  GI50: 2730 nM
MOLT-4; [14]
  CC50: > 100 µM
MOLT-4; read-out: TGI
  TGI: > 100 µM
MOLT-4; read-out: pGI50 (converted)
  GI50: 2750 nM
MOLT-4; [15]
  CC50: > 100 µM
MOLT-4; read-out: pTGI (converted)
  TGI: > 100 µM
SK-OV-3 [4]
  growth at 0.01 µM: 102%
K562 [5]
  growth at 100 µM: 32%
UACC-257; read-out: GI50
  GI50: > 100 µM
UACC-257; [14]
  CC50: > 100 µM
UACC-257; read-out: TGI
  TGI: > 100 µM
UACC-257; read-out: pGI50 (converted)
  GI50: > 100 µM
UACC-257; [15]
  CC50: > 100 µM
UACC-257; read-out: pTGI (converted)
  TGI: > 100 µM
SF-268
  growth at 100 µM: 58%
IGROV-1
  growth at 0.1 µM: 100%
OVCAR-8
  growth at 1 µM: 93%
NCI-H226
  growth at 1 µM: 54%
SK-MEL-28
  growth at 0.1 µM: 97%
MDA-MB-231
  growth at 1 µM: 58%
SK-OV-3 [6]
  growth at 1 µM: 99%
SF-295
  growth at 100 µM: 35%
SNB-75 [7]; read-out: GI50
  GI50: 5.52 µM
SNB-75 [7]; [14]
  CC50: > 100 µM
SNB-75 [7]; read-out: TGI
  TGI: > 100 µM
SNB-75 [7]; read-out: pGI50 (converted)
  GI50: 7.08 µM
SNB-75 [7]; [15]
  CC50: > 100 µM
SNB-75 [7]; read-out: pTGI (converted)
  TGI: > 100 µM
SNB-75 [8]
  growth at 0.01 µM: 90%
SK-OV-3 [9]; read-out: GI50
  GI50: > 100 µM
SK-OV-3 [9]; [14]
  CC50: > 100 µM
SK-OV-3 [9]; read-out: TGI
  TGI: > 100 µM
SK-OV-3 [9]; read-out: pGI50 (converted)
  GI50: > 100 µM
SK-OV-3 [9]; [15]
  CC50: > 100 µM
SK-OV-3 [9]; read-out: pTGI (converted)
  TGI: > 100 µM
DU-145 [10]
  growth at 0.01 µM: 109%
DU-145 [11]; read-out: GI50
  GI50: > 100 µM
DU-145 [11]; [14]
  CC50: > 100 µM
DU-145 [11]; read-out: TGI
  TGI: > 100 µM
DU-145 [11]; read-out: pGI50 (converted)
  GI50: > 100 µM
DU-145 [11]; [15]
  CC50: > 100 µM
DU-145 [11]; read-out: pTGI (converted)
  TGI: > 100 µM
HCT-116
  growth at 0.01 µM: 100%
A549 [12]
  growth at 0.1 µM: 93%
COLO 205
  growth at 100 µM: 45%
SK-MEL-5 [13]
  growth at 1 µM: 57%
